The supplement of paper PMC8671470
± gives the standard deviation of the averaged measurements.

Assays:
Settings in all cases: 72 h
[1] = test system: LAMA-84; assay: cell viability (% survival relative to DMSO control, bortezomib = 0%); higher = less cytotoxic
Procedure, shortened: (§1)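 Seeding density for each of the 10 AML and 5 CML cell lines was titrated to the linear growth range. Cells went into 384-well plates pre-printed in duplicate with compounds at 1, 10, 100, 1000 or 10000 nM and were held for 72 h at 37 °C with 5% CO2. CellTiter-Glo luminescence then provided the readout. Percent survival is expressed relative to vehicle at 100% and a 10 µM positive control at 0%, averaged over duplicates.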

[2] = test system: NOMO-1; assay: as above
Procedure, shortened: as §1

[3] = test system: SHI-1; assay: as above
Procedure, shortened: as §1

[4] = test system: KCL-22; assay: as above
Procedure, shortened: as §1

[5] = test system: HEL; assay: as above
Procedure, shortened: as §1

[6] = test system: KU-812; assay: as above
Procedure, shortened: as §1

[7] = test system: MOLM-13; assay: as above
Procedure, shortened: as §1

[8] = test system: Mono-Mac-6; assay: as above
Procedure, shortened: as §1

[9] = test system: THP-1; assay: as above
Procedure, shortened: as §1

[10] = test system: KG-1; assay: as above
Procedure, shortened: as §1

[11] = test system: K-562; assay: as above
Procedure, shortened: as §1

[12] = test system: ML-2; assay: as above
Procedure, shortened: as §1

[13] = test system: BV-173; assay: as above
Procedure, shortened: as §1

[14] = test system: HL-60; assay: as above
Procedure, shortened: as §1

[15] = test system: MV4-11; assay: as above
Procedure, shortened: as §1

[16] = test system: MV4-11
Procedure, shortened: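 Fifteen myeloid leukaemia lines were incubated for 72 h at 37 °C with 5% CO2 across five tenfold doses from 1 to 10,000 nM, in duplicate. ATP luminescence was normalised to vehicle and to a positive control at 10 µM and fitted with a four-parameter log-logistic model. The IC50 came from these dose–response fits.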

[17] = test system: HL-60; assay: cell viability (% survival relative to DMSO control); higher = less cytotoxic
Procedure, shortened: (§2)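 HL-60 cells in RPMI 1640 with 10% FBS were rescreened against the full library on 384-well plates at five tenfold concentrations, 1–10,000 nM, in duplicate. Each screen was run with DMSO or 100 nM of one of three metabolic inhibitors, for 72 h at 37 °C, 5% CO2. Viability was read by CellTiter-Glo and normalised to DMSO and 10 μM proteasome-inhibitor wells. Where given, area under the curve came from four-parameter log-logistic fits (drc, PharmacoGx).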

[18] = test system: HL-60; assay: area under dose-response curve (viability, 1 nM-10 uM) (fraction (0-1)); higher = more sensitive
Procedure, shortened: as §2

CCCCC/C=C\C/C=C\C/C=C\C/C=C\CCCC(=O)C(F)(F)F [Arachidonyl trifluoromethyl ketone]
Settings	area under dose-response curve, co-treatment: AZD3965 100 nM	area under dose-response curve, co-treatment: DMSO vehicle	area under dose-response curve, co-treatment: GSK2194069 100 nM	area under dose-response curve, co-treatment: pictilisib 100 nM	cell viability, 1 nM [%]	cell viability, 10 nM [%]	cell viability, 100 nM [%]	cell viability, 1000 nM [%]	cell viability, 10000 nM [%]
[1]	–	–	–	–	106	95.5	77.6	85.8	79.5
[2]	–	–	–	–	90.4	98.7	92.1	84.5	79.9
[3]	–	–	–	–	99	101	103	96.9	104
[4]	–	–	–	–	96.9	103	105	97.2	87.5
[5]	–	–	–	–	97.5	89.6	118	98.8	80.8
[6]	–	–	–	–	104	86.9	88.4	68.5	61.7
[7]	–	–	–	–	103	74	85.8	102	86.4
[8]	–	–	–	–	98.5	97.9	102	80.7	57.7
[9]	–	–	–	–	95.2	103	94.1	87.5	61.1
[10]	–	–	–	–	90.8	102	92.6	90	47.7
[11]	–	–	–	–	101	96.1	104	96.8	90.6
[12]	–	–	–	–	98.9	98.3	111	99.2	77.8
[13]	–	–	–	–	103	96.6	95.7	92	76.6
[14]	–	–	–	–	98.9	100	108	93.9	96.5
[15]	–	–	–	–	99.4	99.8	101	97.6	85.9
[18]	< 0.0301	< 0.0301	0.0624	< 0.0301	–	–	–	–	–

Settings	IC50 (cell viability) [µM]
[16]	> 10

cell viability [%], [17]
Settings	0.001 µM	0.01 µM	0.1 µM	1 µM	10 µM
co-treatment: AZD3965 100 nM	101 ± 1.4	104 ± 4.1	101 ± 5.3	91.8 ± 20	98.3 ± 6.5
co-treatment: DMSO vehicle	96.7 ± 2.5	102 ± 8.7	101 ± 3.3	101 ± 7.4	101 ± 1.2
co-treatment: GSK2194069 100 nM	88.4 ± 31	101 ± 2.3	108 ± 11	89.7 ± 8.5	56.72 ± 0.35
co-treatment: pictilisib 100 nM	99.6 ± 20	104 ± 7	102 ± 9.9	81.4 ± 45	96.6 ± 9.5

Cn1c2cc(S(C)=O)sc2c2cnn(Cc3cccc(N)c3)c(=O)c21 (stereo not given) [TEPP-46]
Settings	area under dose-response curve, co-treatment: AZD3965 100 nM	area under dose-response curve, co-treatment: DMSO vehicle	area under dose-response curve, co-treatment: GSK2194069 100 nM	area under dose-response curve, co-treatment: pictilisib 100 nM	cell viability, 1 nM [%]	cell viability, 10 nM [%]	cell viability, 100 nM [%]	cell viability, 1000 nM [%]	cell viability, 10000 nM [%]
[1]	–	–	–	–	106	98.2	98.2	97.4	90.6
[2]	–	–	–	–	104	92.6	102	99.8	93.3
[3]	–	–	–	–	125	101	105	96.5	95.3
[4]	–	–	–	–	109	96.8	97.2	111	87.8
[5]	–	–	–	–	118	96.2	100	99.1	84
[6]	–	–	–	–	94.7	102	98.5	107	74.4
[7]	–	–	–	–	136	92.9	91.9	123	94.3
[8]	–	–	–	–	102	106	103	102	83
[9]	–	–	–	–	101	100	97.5	104	99.7
[10]	–	–	–	–	116	99.9	102	93.5	85.1
[11]	–	–	–	–	112	92.1	101	111	81.8
[12]	–	–	–	–	116	98.9	102	108	91.7
[13]	–	–	–	–	108	84.1	102	106	76.8
[14]	–	–	–	–	104	81.9	98.8	113	105
[15]	–	–	–	–	105	100	94.1	103	69.3
[18]	< 0.0301	< 0.0301	< 0.0301	< 0.0301	–	–	–	–	–

Settings	IC50 (cell viability) [µM]
[16]	> 10

cell viability [%], [17]
Settings	0.001 µM	0.01 µM	0.1 µM	1 µM	10 µM
co-treatment: AZD3965 100 nM	98.7 ± 1.3	108 ± 2.5	113 ± 11	102 ± 1.3	100 ± 3.8
co-treatment: DMSO vehicle	99.6 ± 1.3	103 ± 3.2	104 ± 1.1	104 ± 1.1	107 ± 3.7
co-treatment: GSK2194069 100 nM	97.7 ± 7.9	106 ± 4.1	97.1 ± 18	104 ± 7	101 ± 1.6
co-treatment: pictilisib 100 nM	87.3 ± 9.9	106 ± 5.4	112 ± 6	98.02 ± 0.85	95.3 ± 2.4
